In patent publication US5352599A, “Co-enzyme-independent L-sorbosone dehydrogenase of gluconobacter oxydans: isolation, characterization, and cloning and autologus expression of the gene” (Hoffmann-La Roche Inc., priority 1988, dated 1994):

Columns and labels:
[1] = target: T1, membrane-bound L-sorbosone dehydrogenase from Gluconobacter oxydans IFO 12258, purified, coenzyme independent (Gluconacetobacter liquefaciens, UniProt Q44091); experiment: L-sorbosone dehydrogenase enzyme assay (DCIP reduction at 600 nm, 25° C.); assay type: biochemical
T1 construct: endogenous in cells; host or cells: Gluconobacter oxydans IFO 12258 (enzyme isolated from the strain itself)
T1 sequence (Q44091 1-449): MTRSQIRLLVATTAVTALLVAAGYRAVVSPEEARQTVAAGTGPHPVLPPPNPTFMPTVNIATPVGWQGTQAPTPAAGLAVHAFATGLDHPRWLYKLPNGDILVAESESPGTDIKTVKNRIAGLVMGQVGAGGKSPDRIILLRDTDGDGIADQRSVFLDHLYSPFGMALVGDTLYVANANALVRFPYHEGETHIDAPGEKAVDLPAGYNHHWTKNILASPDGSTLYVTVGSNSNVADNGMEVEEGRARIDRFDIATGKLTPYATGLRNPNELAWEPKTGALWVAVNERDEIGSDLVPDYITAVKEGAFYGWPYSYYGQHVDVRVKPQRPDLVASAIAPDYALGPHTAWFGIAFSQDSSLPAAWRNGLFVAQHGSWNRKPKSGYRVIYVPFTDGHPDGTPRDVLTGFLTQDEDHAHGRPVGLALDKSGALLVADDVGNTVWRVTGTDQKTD
Procedure: (§1) Enzyme assay was performed at 25° C. by measuring the decrease of absorbance at 600nm of DCIP spectrophotometrically. One unit of enzyme activity was defined as the amount of enzyme which catalyzed the reduction of 1 μmole of DCIP per minute.
(§2) The extinction coefficient of DCIP at pH 7.0 was taken as 9.45mM^-1. The basal reaction mixture is shown below. The mixture was prepared just before the assay.
(§3) A cuvette with 1cm light path contained 0.4ml of basal mixture, 20μl of 10mM phenazine methosulphate, 10μl of enzyme solution and 20μl of 110mM L-sorbosone solution in a final volume of 0.45ml. A reference cuvette contains all components except the substrate. The reaction was initiated by the addition of the substrate. Enzyme activity was measured as the initial reduction rate of DCIP.

[2] = substrate: O=CC(=O)[C@@H](O)[C@H](O)[C@@H](O)CO; experiment: as above; assay type: biochemical, Gluconobacter oxydans IFO 12258; conditions: other: pH7.0, purified enzyme, pH 7.0
Procedure: as §1, §2, §3

[N-]=[N+]=[N-].[Na+] [NaN3]
Relative activity (%) in presence of inhibitor ([1]; inhibitor 25 mM, L-Sorbosone as the substrate, None = 100): 89.4%

O=C(O)CI [ICH2 COOH, Monoiodoacetic acid]
inhibition of the enzyme (in words) [1]: moderately inhibited
inhibition at 10000 µM ([1]; read-out: Relative activity (%) in presence of inhibitor): 64.3%

B1: membrane-bound L-sorbosone dehydrogenase from Gluconobacter oxydans IFO 12258, purified, coenzyme independent (Gluconacetobacter liquefaciens) (protein)
chain: MTRSQIRLLVATTAVTALLVAAGYRAVVSPEEARQTVAAGTGPHPVLPPPNPTFMPTVNIATPVGWQGTQAPTPAAGLAVHAFATGLDHPRWLYKLPNGDILVAESESPGTDIKTVKNRIAGLVMGQVGAGGKSPDRIILLRDTDGDGIADQRSVFLDHLYSPFGMALVGDTLYVANANALVRFPYHEGETHIDAPGEKAVDLPAGYNHHWTKNILASPDGSTLYVTVGSNSNVADNGMEVEEGRARIDRFDIATGKLTPYATGLRNPNELAWEPKTGALWVAVNERDEIGSDLVPDYITAVKEGAFYGWPYSYYGQHVDVRVKPQRPDLVASAIAPDYALGPHTAWFGIAFSQDSSLPAAWRNGLFVAQHGSWNRKPKSGYRVIYVPFTDGHPDGTPRDVLTGFLTQDEDHAHGRPVGLALDKSGALLVADDVGNTVWRVTGTDQKTD
notes: endogenous in cells; host or cells: Gluconobacter oxydans IFO 12258 (enzyme isolated from the strain itself)
Km [2]: 16.7 mM
